Results: PubChem BioAssay (NCI)
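Following 48 hours of exposure in 96-well plates, responses at five concentrations were used to interpolate endpoints linearly. Here, GI50 denotes the concentration required for 50% inhibition of growth. TGI: total growth inhibition.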

Key:
Assay in all cases: DTP human tumour cell line panel, 48 h
[1] = test system: MDA-MB-231 breast
[2] = test system: HOP-62 NSCLC
[3] = test system: 786-0 renal
[4] = test system: A498 renal
[5] = test system: LOX IMVI melanoma
[6] = test system: OVCAR-8 ovarian
[7] = test system: HCT-116 colon
[8] = test system: SF-295 CNS
[9] = test system: OVCAR-4 ovarian
[10] = test system: HS 578T breast

Structure (SMILES) | GI50 [1] [µM] | TGI [1] [µM] | GI50 [2] [µM] | TGI [2] [µM] | GI50 [3] [µM] | TGI [3] [µM] | GI50 [4] [µM] | TGI [4] [µM] | GI50 [5] [µM] | TGI [5] [µM] | GI50 [6] [µM] | TGI [6] [µM] | GI50 [7] [µM] | TGI [7] [µM] | GI50 [8] [µM] | TGI [8] [µM] | GI50 [9] [µM] | TGI [9] [µM] | GI50 [10] [µM] | TGI [10] [µM]
C[C@]12CC[C@@H](OC(=O)N(CCCl)N=O)C[C@@H]1CC[C@@H]1[C@@H]2CC[C@]2(C)C(=O)CC[C@@H]12 | 13.5 | 29.8 | 5.48 | 27 | 0.891 | 16.7 | 1.68 | 4.29 | 5.6 | 22.1 | 7.21 | 28.5 | 7.25 | 30.5 | 0.308 | > 51.1 | 14.9 | 53.4 | 3.04 | 17.9
C/C(=C(/c1ccc(O)cc1)c1ccc(Cl)cc1)c1ccccc1 | 0.653 | 1.86 | 0.546 | 1.37 | 0.558 | 1.56 | 1.54 | 5.06 | 0.432 | 0.788 | 0.9 | 3.21 | 0.543 | 1.27 | 0.603 | 1.5 | 0.66 | 2.61 | 0.6 | 1.67
Clc1ccc2ns[s+]c2c1 |  | > 100 |  | > 29.9 |  | > 100 |  | > 100 |  | > 84 |  | > 100 |  | > 100 |  | > 100 |  | > 100 |  | > 100
NC(=S)N/N=C1\CCCC1C(O)(C(F)(F)Cl)C(F)(F)Cl (stereo not given) |  | > 10 |  | > 10 |  | > 10 |  | > 10 |  | > 10 |  | > 10 |  | > 10 |  | > 10 |  | > 10 |  | > 10
Cn1cc(C2=C(c3cn(C)c4cc(N)ccc34)C(=O)NC2=O)c2ccccc21 | 4.09 | 16.2 | 3.86 | > 25 | 3.42 | > 25 | 0.944 | 7.54 | 3.1 | > 25 | 4.18 | > 25 | 1.28 | > 25 | 0.909 | > 25 | 4.41 | 17.4 | 1.06 | > 19.6
CC(=O)Nc1ccc(/C=C2/NC(=S)N(/C=C3\C(=O)Oc4ccccc4C3=O)C2=O)cc1 |  | > 100 |  | > 100 |  | > 100 |  | > 100 |  | > 100 |  | > 100 |  | > 100 |  | > 100 |  | > 100 |  | > 100
C/C(=N\NC(=S)N1CCN(c2ccccn2)CC1)c1nccs1 | 0.796 | 20 |  | 16.8 |  | 13 |  | 17.4 | 0.0952 | 2.42 |  | 14.4 | 0.0156 | 20.2 |  | 20.7 |  | 22.5 |  | 38.3
CC(C)(C)n1cc(-c2ccnc(NCCCNS(=O)(=O)c3ccc(Br)cc3)c2)c(-c2cccc(O)c2)n1 | 1.74 | 3.39 | 2.05 | 4.2 | 1.66 | 3.16 | 1.33 | 3.47 | 1.77 | 3.2 | 2.43 | 6.88 | 1.31 | 2.6 | 1.71 | 3.25 | 1.91 | 3.91 | 2.24 | 5.53
Nc1nc(N)nc(CC(=O)O)n1 |  | > 100 |  | > 100 |  | > 100 |  | > 100 |  | > 100 |  | > 100 |  | > 100 |  | > 100 |  | > 100 |  | > 100
CC[C@@]12C=CCN3CC[C@]4(c5cc(NC(=O)COc6cc(OCC(=O)Nc7cc8c(cc7OC)N(C)[C@H]7[C@@](O)(C(=O)OC)[C@H](OC(C)=O)[C@]9(CC)C=CCN%10CC[C@]87[C@@H]%109)cc7oc(-c8ccccc8)cc(=O)c67)c(OC)cc5N(C)[C@@H]4[C@](O)(C(=O)OC)[C@H]1OC(C)=O)[C@H]32 | 2.68 | 9.08 | 3.08 | > 100 | 3.58 | 14.9 | 7.6 | 22.3 | 2.63 | 10.1 | 2.87 | > 100 | 1.79 | 6.14 | 3.05 | 11.9 |  |  | 3.63 | > 100
NNS(=O)(=O)c1cc(C(=O)O)cc(C(=O)O)c1 |  | > 100 |  | > 100 |  | > 100 |  | > 100 |  | > 100 |  | > 100 |  | > 100 |  | > 100 |  | > 100 |  | > 100
CC[C@]1(O)C[C@@H]2CN(CCc3c([nH]c4ccccc34)[C@@](C(=O)OC)(c3cc4c(cc3OC)N(C)[C@H]3[C@@](O)(C(N)=O)[C@H](O)[C@]5(CC)[C@@H]6C[C@@H]6CN6CC[C@]43[C@@H]65)C2)C1 | 0.00548 | > 16.2 | 0.00694 | > 33.3 | 0.0247 | > 19.3 | 0.00466 | 0.243 | < 0.00333 | > 33.3 | 0.0143 | > 33.3 | < 0.00333 |  | 0.00441 | 2.09 | 0.0931 | > 33.3 | < 0.00333 | > 21.3
COc1ccc(/C=C\c2cc(OC)c(OC)c(OC)c2)c(NS(=O)(=O)c2ccc(Cl)cc2)c1O | 0.206 | 21.4 | 0.671 | 46.1 | 0.572 | 24.8 | 0.0229 | 0.422 | 0.153 | 15.5 | 0.294 | 80.6 | 0.114 | > 100 | 0.256 | 12.2 | 0.0973 | > 100 | 0.292 | 37
COC(=O)c1ccc2c(c1)C(=O)c1c-2n(CCCN)c(=O)c2cc(OC)c(OC)cc12 | 13.6 | 31.5 | 6.09 | > 52.9 | 9.72 | 28.1 | 17.4 | 36.2 | 14.6 | 32 | 14.5 | > 55 | 16.5 | 39.7 | 17.9 | 37.3 | 19.8 | 40 | 18.5 | 42.1
